Data taken from PMC7182704 (Computational and Structural Biotechnology Journal, 2020).

What was measured:
[1] = system: DhaA; settings: pH 9.4, 30 °C; cited from earlier work
[2] = target: T1, LinB (Sphingobium indicum, UniProt D4Z2G1); settings: pH 8.6, 37 °C, cited from earlier work
T1 sequence (D4Z2G1 1-296): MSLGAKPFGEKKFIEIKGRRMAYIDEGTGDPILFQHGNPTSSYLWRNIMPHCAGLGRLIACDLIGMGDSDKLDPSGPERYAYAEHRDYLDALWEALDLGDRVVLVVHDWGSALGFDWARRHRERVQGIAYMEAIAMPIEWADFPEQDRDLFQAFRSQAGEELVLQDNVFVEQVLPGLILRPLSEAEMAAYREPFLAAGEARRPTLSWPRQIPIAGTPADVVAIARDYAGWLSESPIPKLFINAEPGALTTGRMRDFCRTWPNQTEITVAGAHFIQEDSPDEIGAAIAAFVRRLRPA

[3] = target: T2, DmmA (Lyngbya majuscula, UniProt Q6DND9); settings: 37 °C, pH 8.6; cited from earlier work
T2 sequence (Q6DND9 25-341): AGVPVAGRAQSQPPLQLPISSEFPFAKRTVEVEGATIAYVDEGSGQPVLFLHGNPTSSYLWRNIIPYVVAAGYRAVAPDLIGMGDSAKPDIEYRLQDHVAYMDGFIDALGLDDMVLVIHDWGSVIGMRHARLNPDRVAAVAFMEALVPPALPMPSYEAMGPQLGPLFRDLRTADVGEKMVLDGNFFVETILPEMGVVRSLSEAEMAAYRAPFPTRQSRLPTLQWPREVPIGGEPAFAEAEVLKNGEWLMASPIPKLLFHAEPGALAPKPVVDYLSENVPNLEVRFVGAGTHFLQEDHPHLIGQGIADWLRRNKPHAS

[4] = target: T1, LinB; settings: 37 °C, pH 8.6; cited from earlier work
[5] = system: DhlA; settings: pH 8.2, 30 °C; cited from earlier work
[6] = Photophysical properties of fluorescent substrates; format: physicochemical
[7] = Stability of COU–Br and BDP–Cl in the dark and under irradiation; format: physicochemical; settings: 10 µM, pH 8.0, 30 °C
[8] = substrate: COc1cc2oc(=O)cc(CBr)c2cc1OC; assay: Steady-state kinetics, fluorescence progress curves fitted globally; format: biochemical, marine microbial consortium; settings: other: DmmA, 30 °C, pH 8.0
[9] = PBS buffer/DMSO (90:10, v/v), pH 8.0, c ≈ 10^−6 M

## BrCCCBr [DBP, 1,3-dibromopropane]
[1]
  k1: 800000 to 2.5e+06 M⁻¹ s⁻¹
  k2: 249 to 272 s⁻¹
  k3: 13.5 to 16.3 s⁻¹
  k4: 3.4 to 4.6 s⁻¹
  k−1: 60 to 300 s⁻¹

## CCCCCCCl [CH, 1-chlorohexane]
[2]; three-step model
  k3: 3.2 ± 0.2 s⁻¹
[2]
  k2: 117 ± 5 s⁻¹

## CCCCCl [CB, 1-chlorobutane]
[3]
  Km: 400 ± 100 µM
  kcat: 0.17 ± 0.02 s⁻¹
[4]
  Km: 240 ± 20 µM
  kcat: 1.00 ± 0.03 s⁻¹

## ClCCCl [DCE, 1,2-dichloroethane]
[5]
  k1: 9 ± 1 × 10^-3 μM^−1s^−1
  k2: 50 ± 10 s⁻¹
  k3: 14 ± 3 s⁻¹
  k4: 8 ± 2 s⁻¹
  k−1: 20 ± 5 s⁻¹

## BrCCBr [DBE, 1,2-dibromoethane]
[3]
  Km: 2300 ± 300 µM
  kcat: 1.8 ± 0.4 s⁻¹
[4]
  Km: 1700 ± 200 µM
  kcat: 12 ± 4 s⁻¹

## COc1cc2oc(=O)cc(CBr)c2cc1OC [COU–Br, 4-(bromomethyl)-6,7-dimethoxycoumarin]
[6]
  increase in quantum yield upon covalent binding to HLDs: 6 fold
[6]; [9]
  Φfl (quantum yield of fluorescence): 15.2 ± 1.2%
  λmax (absorption maximum): 354 nm
[6]; neat DMSO, three independent measurements
  ε (molar absorption coefficient): 11,500 M^−1cm^−1
[7]; PBS buffer/DMSO (90:10), xenon lamp 100 W, 10 min
  stability under irradiation: slowly degraded under irradiation
[7]; PBS buffer/DMSO (90:10, v/v)
  stability in the dark: stable in the dark

B1: DmmA (Lyngbya majuscula) (protein)
chain: T2 sequence (Q6DND9 25-341)
[8]
  Km: 0.9 ± 0.6 µM
  kcat: 1.9 ± 0.1 s⁻¹
  kcat/Km: 2.1e+06 M⁻¹ s⁻¹
